Molecules are shown by their SMILES.

The assay deals with T1, Src substrate cortactin (CTTN) (Homo sapiens, UniProt Q14247).
T1 construct: endogenous in cells; host or cells: MCF7
The assay can be described thus: In situ competitive profiling in live MCF7 cells (LFQ): CTTN. It is filed as cell-based. Particulars: protein CTTN, 4 h, then 10 µM 24c, n=4. From the text: In our efforts to determine the direct molecular targets of deoxyelephantopin we first performed a gel-based competitive in situ proteomic profiling assay[41] […] While the greater conformational flexibility of probe 24c could potentially lead to more promiscuous target engagement relatively to deoxyelephantopin, it was favoured based on the fact that an alkyne moiety appended to the rigid scaffold of deoxyelephantopin may hinder some of its interactions. MCF7 cells were pretreated with various concentrations of deoxyelephantopin for 4 h, harvested, lysed and the lysates were treated with the fluorogenic probe 24c-Cy3 (10 μM; Supplementary Fig. 10). […] Furthermore, cells were pretreated with 20 μM concentration of deoxyelephantopin or 24c and the proteomic profiles were compared (Fig. 6b, Supplementary Fig. 11). Multiple bands were detected that were equally competed by both DEP and 24c, thus again confirming that 24c can be used as an acceptable clickable analogue of deoxyelephantopin in pulldown assays. Having established the optimal labelling conditions by SDS–PAGE, we next carried out a mass spectrometry-based competitive profiling assay[42] coupled with the method of stable isotope labelling of amino acids in culture (SILAC)[43]. […]
Figure 6 Proteome-wide identification of deoxyelephantopin targets. […] Quantification was performed using label-free quantification (LFQ) method (n=4). […]

T1 sequence (Q14247 whole entry): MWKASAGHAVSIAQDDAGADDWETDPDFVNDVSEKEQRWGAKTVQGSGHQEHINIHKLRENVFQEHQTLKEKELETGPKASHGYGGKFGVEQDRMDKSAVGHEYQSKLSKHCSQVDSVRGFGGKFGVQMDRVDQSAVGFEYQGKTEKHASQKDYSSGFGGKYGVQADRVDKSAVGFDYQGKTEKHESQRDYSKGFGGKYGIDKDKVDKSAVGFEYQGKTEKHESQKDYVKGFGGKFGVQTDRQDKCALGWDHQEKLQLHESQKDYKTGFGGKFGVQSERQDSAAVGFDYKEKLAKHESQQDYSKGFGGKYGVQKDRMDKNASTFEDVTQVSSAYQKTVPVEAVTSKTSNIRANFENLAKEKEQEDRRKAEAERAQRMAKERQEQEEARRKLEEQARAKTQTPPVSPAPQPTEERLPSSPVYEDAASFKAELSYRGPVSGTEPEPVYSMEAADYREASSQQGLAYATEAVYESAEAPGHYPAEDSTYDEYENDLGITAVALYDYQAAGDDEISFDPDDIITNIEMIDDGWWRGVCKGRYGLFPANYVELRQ

In the case of `C=C(C)C(=O)O[C@H]1CC2=C[C@@H](C/C(C)=C/[C@H]3OC(=O)C(=C)[C@H]13)OC2=O` [deoxyelephantopin], the “LFQ ratio 20 µM Deoxyelephantopin/DMSO with 24c” value was 0.22.

For the origin of these results see paper PMC4992173, “Divergent synthesis and identification of the cellular targets of deoxyelephantopins” (Nature Communications, 2016).
